target: Glycogen synthase kinase-3 alpha (Homo sapiens, UniProt P49840)
Sequence (P49840 whole entry): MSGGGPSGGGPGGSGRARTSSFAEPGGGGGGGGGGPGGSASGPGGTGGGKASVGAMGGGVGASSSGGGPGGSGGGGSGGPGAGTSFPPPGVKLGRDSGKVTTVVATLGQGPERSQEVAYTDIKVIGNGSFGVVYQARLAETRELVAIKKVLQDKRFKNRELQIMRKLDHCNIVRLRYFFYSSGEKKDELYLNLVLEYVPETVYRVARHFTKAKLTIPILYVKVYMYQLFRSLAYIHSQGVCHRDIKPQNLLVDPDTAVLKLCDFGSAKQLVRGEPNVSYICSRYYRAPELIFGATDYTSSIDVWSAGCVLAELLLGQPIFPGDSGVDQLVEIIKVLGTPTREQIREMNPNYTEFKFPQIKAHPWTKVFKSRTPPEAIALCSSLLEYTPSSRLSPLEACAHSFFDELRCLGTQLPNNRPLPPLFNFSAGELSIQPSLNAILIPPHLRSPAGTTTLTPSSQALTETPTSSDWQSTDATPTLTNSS

| IC50 [nM] | Structure (SMILES) |
| --- | --- |
| 0.65 | Nc1nc(NCCNc2ncc(-c3ncc[nH]3)c(-c3ccc(Cl)cc3Cl)n2)ccc1[N+](=O)[O-] |

target: Glycogen synthase kinase-3 beta (Homo sapiens, UniProt P49841)
Sequence (P49841 whole entry): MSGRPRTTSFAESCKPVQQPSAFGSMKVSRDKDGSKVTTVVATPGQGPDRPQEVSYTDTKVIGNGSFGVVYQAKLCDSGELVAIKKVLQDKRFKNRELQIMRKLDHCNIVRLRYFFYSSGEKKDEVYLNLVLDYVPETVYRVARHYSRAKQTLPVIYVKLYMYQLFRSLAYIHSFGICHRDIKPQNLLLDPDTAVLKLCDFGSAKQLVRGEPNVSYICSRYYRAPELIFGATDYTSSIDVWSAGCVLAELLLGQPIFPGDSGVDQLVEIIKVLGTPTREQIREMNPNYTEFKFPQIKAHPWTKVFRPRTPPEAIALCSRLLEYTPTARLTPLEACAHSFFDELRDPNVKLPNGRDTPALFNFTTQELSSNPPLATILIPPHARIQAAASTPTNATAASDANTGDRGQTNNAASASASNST

| IC50 [nM] | Structure (SMILES) |
| --- | --- |
| 34 | O=C1NC(=O)C2=C1c1cn(c3ncccc13)CCOCCOCCOCCOCCn1cc2c2cccnc21 |
| 36 | O=C1NC(=O)C2=C1c1cn(c3ncccc13)CCCC1=CC=C(CCCn3cc2c2cccnc23)S1 |
| 16 | COc1cccc(-n2ncc3c(N/N=C/c4ccncc4)ncnc32)c1 [GW784752X] |
| 3 | Cn1cc(C2=C(c3cn(CCCSC(=N)N)c4ccccc34)C(=O)NC2=O)c2ccccc21 [BISINDOLYLMALEIMIDE IX] |
| 30 | Nc1cccc(-c2cc3c(Oc4cccc(O)c4)ncnc3[nH]2)c1 |

| Structure (SMILES) | IC50 [nM] |
| --- | --- |
| CN(C)CCCn1cc(C2=C(c3c[nH]c4ccccc34)C(=O)NC2=O)c2ccccc21 [GF-109203] | 190 |

system: not listed separately; assay: Inhibition of GSK3

| Structure (SMILES) | IC50 [nM] |
| --- | --- |
| COc1ccc2c(c1)/C(=C/c1cnc[nH]1)C(=O)N2 [SU-9516] | 330 |
| O=Nc1c(-c2c(O)[nH]c3ccccc23)[nH]c2ccccc12 [INDIRUBIN-3-MONOXIME] | 5 |
| CN[C@@H]1C[C@H]2O[C@@](C)([C@@H]1OC)n1c3ccccc3c3c4c(c5c6ccccc6n2c5c31)C(=O)NC4 [STAUROSPORINE] | 15 |
| CC(C)c1c(-c2ccc(Cl)cc2)[nH]c2nccnc12 | 750 |
| NC1N=Nc2nc3ccccc3nc21 (configuration not stated) | 1000 |
| CN1CC[C@H](c2c(O)cc(O)c3c(=O)cc(-c4ccccc4Cl)oc23)[C@H](O)C1 [ALVOCIDIB] | 450 |

Next, values leading:

| IC50 [nM] | Structure (SMILES) |
| --- | --- |
| 650 | CCCCc1c(-c2ccc(O)cc2)[nH]c2nccnc12 [ALOISINE A] |
| 10 | OCCCNc1cc(-c2ccnc(Nc3cccc(Cl)c3)n2)ccn1 |

target: Glycogen synthase kinase-3 (Homo sapiens, UniProt P49840+P49841); assay type: protein assay

| IC50 [nM] | Structure (SMILES) |
| --- | --- |
| 4 | CN1CCN(c2ccc(NCCNc3ccc([N+](=O)[O-])c(N)n3)nc2-c2ccc(Cl)cc2Cl)C(=O)C1 |

target: Cyclin-dependent kinase 1/cyclin B (Homo sapiens, UniProt P06493); assay type: protein-complex assay

| Structure (SMILES) | IC50 [nM] |
| --- | --- |
| Cn1cc(C2=C(c3ccc(Cl)cc3Cl)C(=O)NC2=O)c2ccccc21 [SB-216763] | 550 |
| CC(C)c1c(-c2ccc(Cl)cc2)[nH]c2nccnc12 | 850 |
| CN(C)CCCn1cc(C2=C(c3c[nH]c4ccccc34)C(=O)NC2=O)c2ccccc21 [GF-109203] | 2300 |
| Nc1nc(NCCNc2ncc(-c3ncc[nH]3)c(-c3ccc(Cl)cc3Cl)n2)ccc1[N+](=O)[O-] | 3700 |
| NC1N=Nc2nc3ccccc3nc21 (configuration not stated) | 600 |
| Cn1sc(=O)n(Cc2ccccc2)c1=O | > 10000 |

Further lines, results first:

| IC50 [nM] | Structure (SMILES) |
| --- | --- |
| 900 | O=C1NC(=O)C(c2ccccc2[N+](=O)[O-])=C1Nc1ccc(O)c(Cl)c1 |
| > 10000 | Ic1cccc(CSc2nnc(-c3ccncc3)o2)c1 |

target: Cyclin-dependent kinase 2/cyclin A (Homo sapiens) (UniProt P24941+P20248+P78396); assay: (§1) Inhibition of CDK2/cyclinA at 10 mM; assay type: protein-complex assay

| inhibition [%] | Structure (SMILES) |
| --- | --- |
| 90 | CN(C)CCC(=O)Nc1n[nH]c2nnc(-c3ccccc3)cc12 |

target: Cyclin-dependent kinase 2/cyclin A (Homo sapiens, UniProt P24941); assay: as §1; assay type: protein-complex assay

| IC50 [nM] | Structure (SMILES) |
| --- | --- |
| > 10000 | O=C1NC(=O)C(c2cccc(Cl)c2)=C1Nc1ccc(Cl)c(C(=O)O)c1 |
| > 250000 | Nc1nonc1-n1nnc(-c2nnc(-c3ccncc3)[nH]2)c1CN1CCCCC1 |

From ChEMBL document CHEMBL1240296, “Pharmacological inhibitors of glycogen synthase kinase 3” (Trends Pharmacol Sci, 2004)
